Measurements from PubChem BioAssay (NCI).
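Briefly, cells in 96-well plates were exposed to five compound concentrations for 48 h, and endpoints were estimated by linear interpolation. At the GI50, growth is halved. TGI: total growth inhibition.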

What was measured:
Assay in all cases: DTP human tumour cell line panel, 48 h; in the data active = GI50 below about 0.43 µM; inactive = the rest
[1] = tested on: 786-0 renal
[2] = tested on: A498 renal
[3] = tested on: A549 NSCLC
[4] = tested on: ACHN renal
[5] = tested on: BT-549 breast
[6] = tested on: CAKI-1 renal
[7] = tested on: CCRF-CEM leukemia
[8] = tested on: COLO 205 colon
[9] = tested on: DU-145 prostate
[10] = tested on: EKVX NSCLC
[11] = tested on: HCC-2998 colon
[12] = tested on: HCT-116 colon
[13] = tested on: HCT-15 colon
[14] = tested on: HL-60(TB) leukemia
[15] = tested on: HOP-62 NSCLC
[16] = tested on: HOP-92 NSCLC
[17] = tested on: HS 578T breast
[18] = tested on: HT29 colon
[19] = tested on: IGROV1 ovarian
[20] = tested on: K-562 leukemia
[21] = tested on: KM12 colon
[22] = tested on: LOX IMVI melanoma
[23] = tested on: MALME-3M melanoma
[24] = tested on: MCF7 breast
[25] = tested on: MDA-MB-231 breast
[26] = tested on: MDA-MB-435
[27] = tested on: MOLT-4 leukemia
[28] = tested on: NCI-H226 lung
[29] = tested on: NCI-H23 lung
[30] = tested on: NCI-H460 lung
[31] = tested on: NCI-H522 lung
[32] = tested on: NCI/ADR-RES ovarian
[33] = tested on: OVCAR-3 ovarian
[34] = tested on: OVCAR-4 ovarian
[35] = tested on: OVCAR-5 ovarian
[36] = tested on: OVCAR-8 ovarian
[37] = tested on: PC-3 prostate
[38] = tested on: RPMI-8226 leukemia
[39] = tested on: RXF 393 renal
[40] = tested on: SF-268 CNS
[41] = tested on: SF-295 CNS
[42] = tested on: SF-539 CNS
[43] = tested on: SK-MEL-2 melanoma
[44] = tested on: SK-MEL-28 melanoma
[45] = tested on: SK-MEL-5 melanoma
[46] = tested on: SK-OV-3 ovarian
[47] = tested on: SN12C renal
[48] = tested on: SNB-19 CNS
[49] = tested on: SNB-75 CNS
[50] = tested on: SR leukemia
[51] = tested on: SW-620 colon
[52] = tested on: T-47D breast
[53] = tested on: TK-10 renal
[54] = tested on: U251 CNS
[55] = tested on: UACC-257 melanoma
[56] = tested on: UACC-62 melanoma
[57] = tested on: UO-31 renal
[58] = tested on: M14 melanoma

CC[C@@H](C(=O)[C@H](C)[C@H](O)[C@@H](C)[C@H]1O[C@H]([C@@H](CC)C(=O)N(CC)CC)CC[C@H]1C)C1O[C@]2(C=C[C@@H](O)[C@]3(CC[C@@](C)([C@H]4CC[C@](O)(CC)[C@H](C)O4)O3)O2)[C@H](C)C[C@@H]1C (some centres undefined)
10 µM: TGI [4]
5.7 µM: TGI [23]
8.94 µM: TGI [29]
19.4 µM: TGI [20]
12.5 µM: TGI [12]
13.6 µM: TGI [50]
15.6 µM: TGI [18]
13.7 µM: TGI [52]
4.29 µM: TGI [22] | TGI [25]
11.4 µM: TGI [10]
13.8 µM: TGI [17]
11.3 µM: TGI [34]
5.87 µM: TGI [39]
10.1 µM: TGI [24] | TGI [46] | TGI [47]
3.24 µM: TGI [45]
21.1 µM: TGI [36]
7.05 µM: TGI [27]
10.7 µM: TGI [11]
17 µM: TGI [44]
9.27 µM: TGI [32]
26.7 µM: TGI [53]
14.9 µM: TGI [9]
17.6 µM: TGI [3]
11.1 µM: TGI [35] | TGI [49]
19.5 µM: TGI [15]
19.3 µM: TGI [40]
6.15 µM: TGI [38]
5.43 µM: TGI [16]
17.5 µM: TGI [1]
10.5 µM: TGI [42]
16.8 µM: TGI [48]
13.4 µM: TGI [7]
5.82 µM: TGI [8]
9.8 µM: TGI [26]
13.3 µM: TGI [51]
14.8 µM: TGI [5]
9.81 µM: TGI [41]
inactive: GI50 [1] 3550 nM | GI50 [2] 2440 nM | GI50 [3] 2950 nM | GI50 [4] 2930 nM | GI50 [5] 3330 nM | GI50 [6] 2120 nM | GI50 [7] 3390 nM | GI50 [8] 2500 nM | GI50 [9] 3910 nM | GI50 [10] 2580 nM | GI50 [11] 2970 nM | GI50 [12] 2900 nM | GI50 [13] 2640 nM | GI50 [14] 2240 nM | GI50 [15] 4330 nM | GI50 [16] 1450 nM | GI50 [17] 2900 nM | GI50 [18] 3340 nM | GI50 [19] 2730 nM | GI50 [20] 3120 nM | GI50 [21] 2530 nM | GI50 [22] 1830 nM | GI50 [23] 2210 nM | GI50 [24] 2610 nM | GI50 [25] 1860 nM | GI50 [26] 2810 nM | GI50 [27] 2550 nM | GI50 [28] 2690 nM | GI50 [29] 2810 nM | GI50 [30] 2610 nM | GI50 [31] 2340 nM | GI50 [32] 2560 nM | GI50 [33] 2640 nM | GI50 [34] 3.04 µM | GI50 [35] 2850 nM | GI50 [36] 3420 nM | GI50 [37] 2540 nM | GI50 [38] 2050 nM | GI50 [39] 2060 nM | GI50 [40] 3600 nM | GI50 [41] 2490 nM | GI50 [42] 3010 nM | GI50 [43] 3190 nM | GI50 [44] 4.97 µM | GI50 [45] 1760 nM | GI50 [46] 3060 nM | GI50 [47] 2750 nM | GI50 [48] 3240 nM | GI50 [49] 1720 nM | GI50 [50] 2910 nM | GI50 [51] 3220 nM | GI50 [52] 2440 nM | GI50 [53] 3350 nM | GI50 [54] 3330 nM | GI50 [55] 3070 nM | GI50 [56] 2430 nM | GI50 [57] 2400 nM
11.9 µM: TGI [37]
7.74 µM: TGI [31]
14 µM: TGI [54]
9.21 µM: TGI [43]
7.03 µM: TGI [21]
12.4 µM: TGI [55]
7.3 µM: TGI [30]
8.16 µM: TGI [33]
8.06 µM: TGI [6]
5.13 µM: TGI [14]
8.21 µM: TGI [2]
8.28 µM: TGI [13]
10.9 µM: TGI [28]
10.8 µM: TGI [19] | TGI [56]
7.94 µM: TGI [57]

CCOC(=O)c1cc(C(=O)c2cc(OC)c(OC)c(OC)c2)n2c1ccc1ccccc12
0.173 µM: TGI [26]
> 20.6 µM: TGI [17]
active: GI50 [2] 36.2 nM | GI50 [3] 286 nM | GI50 [6] 71.7 nM | GI50 [7] 322 nM | GI50 [8] 260 nM | GI50 [9] 372 nM | GI50 [12] 271 nM | GI50 [13] 137 nM | GI50 [14] 338 nM | GI50 [17] 276 nM | GI50 [18] 254 nM | GI50 [19] 353 nM | GI50 [20] 60.4 nM | GI50 [21] 260 nM | GI50 [58] 137 nM | GI50 [24] 100 nM | GI50 [26] 36.7 nM | GI50 [30] 313 nM | GI50 [31] 131 nM | GI50 [32] 172 nM | GI50 [33] 151 nM | GI50 [37] 294 nM | GI50 [38] 378 nM | GI50 [39] 220 nM | GI50 [42] 216 nM | GI50 [49] 59.9 nM | GI50 [50] 70.4 nM | GI50 [51] 157 nM | GI50 [56] 171 nM
0.316 µM: TGI [2]
> 100 µM: TGI [1] | TGI [3] | TGI [4] | TGI [5] | TGI [6] | TGI [7] | TGI [9] | TGI [10] | TGI [11] | TGI [12] | TGI [13] | TGI [14] | TGI [15] | TGI [16] | TGI [19] | TGI [20] | TGI [21] | TGI [22] | TGI [58] | TGI [23] | TGI [24] | TGI [25] | TGI [27] | TGI [28] | TGI [29] | TGI [30] | TGI [32] | TGI [35] | TGI [36] | TGI [37] | TGI [38] | TGI [40] | TGI [43] | TGI [44] | TGI [45] | TGI [46] | TGI [47] | TGI [48] | TGI [50] | TGI [51] | TGI [52] | TGI [53] | TGI [54] | TGI [55] | TGI [56] | TGI [57]
0.723 µM: TGI [42]
0.617 µM: TGI [49]
1.26 µM: TGI [33]
1.94 µM: TGI [8]
0.81 µM: TGI [39]
inactive: GI50 [1] 693 nM | GI50 [4] 997 nM | GI50 [5] 1080 nM | GI50 [10] 461 nM | GI50 [11] 514 nM | GI50 [15] 466 nM | GI50 [16] 1430 nM | GI50 [22] 669 nM | GI50 [23] 634 nM | GI50 [25] 1480 nM | GI50 [27] 477 nM | GI50 [28] 1230 nM | GI50 [29] 478 nM | GI50 [35] 539 nM | GI50 [36] 489 nM | GI50 [40] 1940 nM | GI50 [43] 932 nM | GI50 [44] 1.45 µM | GI50 [45] 434 nM | GI50 [46] 1020 nM | GI50 [47] 814 nM | GI50 [48] 636 nM | GI50 [52] 570 nM | GI50 [53] 2370 nM | GI50 [54] 428 nM | GI50 [55] 2270 nM | GI50 [57] 502 nM
